From patent US20230183243A1, “HETEROARYL DERIVATIVES AND PHARMACEUTICAL COMPOSITION COMPRISING SAME AS ACTIVE INGREDIENT” (VORONOI INC., priority 2019, published 2023)

What was measured:
MDA-MB-231 cells = assay: Inhibition of proliferation of triple-negative breast cancer cells, CellTiter-Glo; assay type: cell-based; settings: Homo sapiens, 120 h; MDA-MB-231, cultured for 5 days
Procedure: Specifically, the following test was performed in order to evaluate the inhibitory activity of the compound according to the present invention against the cell proliferation in triple-negative breast cancer cells (TNBCs).
Cells were seeded in 180 μL of a culture broth at a density of 2,000 to 3,000 cells/well in a white clear bottom 96-well plate (Corning) according to the growth ability of each cell, and then cultured for 24 hours under conditions of 5% CO2 and 37° C. Thereafter, the compound was prepared by diluting a 10 mM stock solution three-fold with 100% DMSO at a total of 12 concentrations so that a peak concentration of the compound was in a range of 10 mM to 0.05 μM, and the diluted compound was then diluted in each cell culture medium so that a final concentration of the compound was in a range of 100 μM to 0.5 nM. 20 μL of a diluted solution diluted with a medium was added to the cell solution in which cells were seeded in the 96-well plate on the previous day so that a final concentration of the diluted solution was in a range of 10 μM to 0.05 nM. Each of the cells was cultured for 5 days. To check cell viability, a mixture provided in a CellTiter-Glo® Luminescent Cell Viability Assay Kit (Promega) was added to each of the cultured cell media, and cultured for another 10 minutes under a condition of 37° C. Then, a degree of luminescence (fluorescence) was measured. A degree of inhibition of the cell growth according to the treatment concentration of each of the compounds was calculated based on the fluorescence of the solvent control cells which were not treated with the compound.

TTK = molecular target: T1, TTK (Homo sapiens, UniProt P33981); assay: TTK enzyme activity, ADP-Glo kinase assay; assay type: biochemical; design: purchased SignalChem T20-10G; settings: purified human TTK, ATP 10 μM, 25° C., 2 hours
T1 sequence (P33981 1-857): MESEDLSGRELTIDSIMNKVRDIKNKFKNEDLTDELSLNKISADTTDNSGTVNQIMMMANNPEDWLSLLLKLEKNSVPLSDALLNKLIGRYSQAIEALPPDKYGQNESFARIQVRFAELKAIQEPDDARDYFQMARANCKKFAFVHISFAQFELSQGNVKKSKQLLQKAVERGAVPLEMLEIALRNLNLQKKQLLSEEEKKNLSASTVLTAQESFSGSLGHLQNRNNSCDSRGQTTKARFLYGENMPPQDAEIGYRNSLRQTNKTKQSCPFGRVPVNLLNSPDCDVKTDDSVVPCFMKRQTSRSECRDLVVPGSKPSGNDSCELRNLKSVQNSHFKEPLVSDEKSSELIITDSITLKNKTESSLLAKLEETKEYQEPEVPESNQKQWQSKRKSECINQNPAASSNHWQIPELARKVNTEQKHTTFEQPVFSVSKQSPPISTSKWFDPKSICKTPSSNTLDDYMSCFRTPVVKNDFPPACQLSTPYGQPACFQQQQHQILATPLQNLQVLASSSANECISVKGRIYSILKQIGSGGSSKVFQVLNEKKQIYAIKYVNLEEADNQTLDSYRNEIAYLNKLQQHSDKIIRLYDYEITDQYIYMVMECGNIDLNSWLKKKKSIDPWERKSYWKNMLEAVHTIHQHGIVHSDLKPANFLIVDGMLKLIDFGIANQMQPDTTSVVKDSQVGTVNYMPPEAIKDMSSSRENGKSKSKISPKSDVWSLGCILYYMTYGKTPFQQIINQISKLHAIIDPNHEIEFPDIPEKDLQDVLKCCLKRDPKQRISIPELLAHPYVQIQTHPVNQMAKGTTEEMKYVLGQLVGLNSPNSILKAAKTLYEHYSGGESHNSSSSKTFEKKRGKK
Procedure: To evaluate an inhibitory activity of the compound according to the present invention against TTK (MPS1), an experiment was performed as follows.
Each of the Example compounds was reacted with a purified human TTK (SignalChem #T20-10G) enzyme to evaluate an ability to inhibit an enzyme using a method as described below. A composition of 40 mM Tris-HCl (pH 7.4), 20 mM MgCl2, 0.5 mg/mL BSA, and 50 μM DTT was used as a reaction buffer, and all reactions of test substances were performed in the reaction buffer. […] In the test, purified ATP (10 μM) and an enzyme substrate (0.2 μg) were reacted with a human TTK (25 ng) enzyme at 25° C. for 2 hours, and the enzyme activity was determined using an in vitro ADP-Glo™ kinase assay (Promega). […] The degree of inhibition of the enzyme activity according to the treatment concentration of each of the compounds was calculated based on the fluorescence of the enzyme activity of the solvent control which was not treated with the compound.

GI50 (MDA-MB-231 cells) [nM] | IC50 (TTK) [nM] | SMILES
< 100 | 50 to 200 | COc1cc(-c2ccc(F)nc2)ccc1Nc1nc(NC2CCCC2)c2c(C#N)c[nH]c2n1 [Example 42, 4-(cyclopentylamino)-2-((4-(6-fluoropyridin-3-yl)-2-methoxyphenyl)amino)-7H-pyrrolo[2,3-d] pyrimidine-5-carbonitrile]
< 100 | 50 to 200 | Cn1nccc1-c1ccc(Nc2nc(NC3CCCC3)c3c(C#N)c[nH]c3n2)c2c1CCO2 [Example 33, 4-(cyclopentylamino)-2-((4-(1-methyl-1H-pyrazol-5-yl)-2,3-dihydrobenzofuran-7-yl)amino)-7H-pyrrolo[2,3-d] pyrimidine-5-carbonitrile]
< 100 | < 50 | N#Cc1c[nH]c2nc(Nc3ccc(N4CCCC4=O)c4c3OCCO4)nc(NC3CCCCC3)c12 [Example 79, 4-(cyclohexylamino)-2-((8-(2-oxopyrrolidin-1-yl)-2,3-dihydrobenzo[b][1,4]dioxin-5-yl)amino)-7H-pyrrolo[2,3-d] pyrimidine-5-carbonitrile]
> 1000 | 200 to 1000 | CCOc1cc(-c2nncn2C)ccc1Nc1nc(C2CC2)c2c(C#N)c[nH]c2n1 [Example 46, 4-cyclopropyl-2-((2-ethoxy-4-(4-methyl-4H-1,2,4-triazol-3-yl)phenyl)amino)-7H-pyrrolo[2,3-d] pyrimidine-5-carbonitrile]
< 100 | 50 to 200 | COc1cc(-c2ccc(CN3CCN(C(C)=O)CC3)cc2)ccc1Nc1nc(NC2CCCCC2)c2c(C#N)c[nH]c2n1 [Example 23, 2-((4′-((4-acetylpiperazin-1-yl)methyl)-3-methoxy-[1,1′-biphenyl]-4-yl)amino)-4-(cyclohexylamino)-7H-pyrrolo[2,3-d] pyrimidine-5-carbonitrile]
> 1000 | 50 to 200 | CNc1nc(Nc2ccc(N3CCCC3=O)cc2OC)nc2[nH]cc(C(F)(F)F)c12 [Example 51, l-(3-methoxy-4-((4-(methylamino)-5-(trifluoromethyl)-7H-pyrrolo[2,3-d]pyrimidin-2-yl)amino)phenyl) pyrrolidin-2-one]
< 100 | < 50 | COc1cc(-c2ccc(F)nc2)ccc1Nc1nc(NC2CCCCC2)c2c(C#N)c[nH]c2n1 [Example 24, 4-(cyclohexylamino)-2-((4-(6-fluoropyridin-3-yl)-2-methoxyphenyl)amino)-7H-pyrrolo[2,3-d] pyrimidine-5-carbonitrile]
< 100 | < 50 | COc1cc(-c2cnn(C3COC3)c2)ccc1Nc1nc(NC2CCCCC2)c2c(C#N)c[nH]c2n1 [Example 20, 4-(cyclohexylamino)-2-((2-methoxy-4-(1-(oxetan-3-yl)-1H-pyrazol-4-yl)phenyl)amino)-7H-pyrrolo[2,3-d] pyrimidine-5-carbonitrile]

The next lines start with the compound.

SMILES | GI50 (MDA-MB-231 cells) [nM] | IC50 (TTK) [nM]
COc1cc(-c2ccc(CN3CCN(C(C)=O)CC3)cc2)ccc1Nc1nc(NC2CCCC2)c2c(C#N)c[nH]c2n1 [Example 41, 2-((4′-((4-acetylpiperazin-1-yl)methyl)-3-methoxy-[1,1′-biphenyl]-4-yl)amino)-4-(cyclopentylamino)-7H-pyrrolo[2,3-d] pyrimidine-5-carbonitrile] | 100 to 1000 | 50 to 200
COc1cc(N2CCCC2=O)ccc1Nc1nc(NCC2CCC2)c2c(C#N)c[nH]c2n1 [Example 70, 4-((cyclobutylmethyl)amino)-2-((2-methoxy-4-(2-oxopyrrolidin-1-yl)phenyl)amino)-7H-pyrrolo[2,3-d] pyrimidine-5-carbonitrile] | > 1000 | < 50
COc1cc(-c2ccnn2C)c(C)cc1Nc1nc(NC2CCCC2)c2c(C#N)c[nH]c2n1 [Example 35, 4-(cyclopentylamino)-2-((2-methoxy-5-methyl-4-(1-methyl-1H-pyrazol-5-yl)phenyl)amino)-7H-pyrrolo[2,3-d] pyrimidine-5-carbonitrile] | 100 to 1000 | 200 to 1000
COc1cc(-c2c(C)noc2C)ccc1Nc1nc(NC2CCCCC2)c2c(C#N)c[nH]c2n1 [Example 18, 4-(cyclohexylamino)-2-((4-(3,5-dimethylisoxazol-4-yl)-2-methoxyphenyl)amino)-7H-pyrrolo[2,3-d] pyrimidine-5-carbonitrile] | < 100 | < 50
COCC(C)(C)Nc1nc(Nc2ccc(N3CCCC3=O)cc2OC)nc2[nH]cc(C#N)c12 [Example 72, 4-((1-methoxy-2-methylpropan-2-yl)amino)-2-((2-methoxy-4-(2-oxopyrrolidin-1-yl)phenyl)amino)-7H-pyrrolo[2,3-d] pyrimidine-5-carbonitrile] | 100 to 1000 | < 50
COc1cc(-c2cn(C)nn2)ccc1Nc1nc(NC2CCCCC2)c2c(C#N)c[nH]c2n1 [Example 25, 4-(cyclohexylamino)-2-((2-methoxy-4-(1-methyl-1H-1,2,3-triazol-4-yl)phenyl)amino)-7H-pyrrolo[2,3-d] pyrimidine-5-carbonitrile] | < 100 | 200 to 1000
CNc1nc(Nc2ccc(-c3ccnn3C)c3c2OCCO3)nc2[nH]cc(C#N)c12 [Example 75, 2-((8-(l-methyl-1H-pyrazol-5-yl)-2,3-dihydrobenzo[b][1,4]dioxin-5-yl)amino)-4-(methylamino)-1H-pyrrolo[2,3-d] pyrimidine-5-carbonitrile] | < 100 | < 50
CC(=O)N1CCN(Cc2ccc(-c3ccc(Nc4nc(NC5CCCCC5)c5c(C#N)c[nH]c5n4)cc3)cc2)CC1 [Example 21] | 100 to 1000 | 50 to 200
COc1cc(-c2nccs2)ccc1Nc1nc(NC2CCCC2)c2c(C#N)c[nH]c2n1 [Example 17, 4-(cyclopentylamino)-2-((2-methoxy-4-(thiazol-2-yl)phenyl)amino)-7H-pyrrolo[2,3-d] pyrimidine-5-carbonitrile] | < 100 | 200 to 1000
CC(C)COc1cc(N2CCCC2=O)ccc1Nc1nc(NC2CCCC2)c2c(C#N)c[nH]c2n1 [Example 28, 4-(cyclopentylamino)-2-((2-isobutoxy-4-(2-oxopyrrolidin-1-yl)phenyl)amino)-7H-pyrrolo[2,3-d] pyrimidine-5-carbonitrile] | > 1000 | 200 to 1000
COc1cc(-c2ncnn2C)ccc1Nc1nc(NC2CCCCC2)c2c(C#N)c[nH]c2n1 [Example 26, 4-(cyclohexylamino)-2-((2-methoxy-4-(l-methyl-1H-1,2,4-triazol-5-yl)phenyl)amino)-7H-pyrrolo[2,3-d] pyrimidine-5-carbonitrile] | < 100 | 50 to 200
CC[C@@H](C)Nc1nc(Nc2ccc(-c3ccnn3C)cc2OC)nc2[nH]cc(C#N)c12 [Example 10, (R)4-(sec-butylamino)-2-((2-methoxy-4-(1-methyl-1H-pyrazol-5-yl)phenyl)amino)-7H-pyrrolo[2,3-d] pyrimidine-5-carbonitrile 2,2,2-trifluoroacetate] | < 100 | < 50
CCCCNc1nc(Nc2ccc(N3CCCC3=O)cc2OC)nc2[nH]cc(C#N)c12 [Example 67, 4-(butylamino)-2-((2-methoxy-4-(2-oxopyrrolidin-1-yl)phenyl)amino)-7H-pyrrolo[2,3-d] pyrimidine-5-carbonitrile] | < 100 | < 50
